The record followed here is ChEMBL document CHEMBL4602641, “Discovery of novel pyrrolo[2,3-b]pyridine derivatives bearing 4-oxoquinoline moiety as potential antitumor inhibitor” (Bioorg Med Chem Lett, 2020).

The subject of assay [1] is A549. Put plainly: Antiproliferative activity against human A549 cells assessed as cell growth inhibition measured after 72 hrs by MTT assay. To be noted: A549, 72 h. For orientation: Tetrazolium dyes change colour on reduction, which living cells bring about.
For assay [2], the system named is HepG2. Put plainly: Antiproliferative activity against human HepG2 cells assessed as cell growth inhibition measured after 72 hrs by MTT assay. The note with it: HepG2, 72 h.
Another assay has as its system MCF7. Put plainly: Antiproliferative activity against human MCF7 cells assessed as cell growth inhibition measured after 72 hrs by MTT assay. The note with it: MCF7, 72 h.
In assay [3] the test system is HepG2. Put plainly: Induction of apoptosis in human HepG2 cells assessed as abnormal cell morphology at 0.24 uM by acridine orange staining based fluorescence microscopy. It is filed as functional.
Assay [4] has as its system HepG2. Put plainly: Induction of apoptosis in human HepG2 cells assessed as decomposed nucleus at 0.24 uM by acridine orange staining based fluorescence microscopy. It is filed as functional, cell-based.
Assay [5] deals with HepG2. Put plainly: Induction of apoptosis in human HepG2 cells assessed as dispersed nucleus at 0.24 uM by acridine orange staining based fluorescence microscopy. It is filed as functional, cell-based.
Assay [6] deals with HepG2. Put plainly: Induction of apoptosis in human HepG2 cells assessed as concentrated chromatin at 0.24 uM by acridine orange staining based fluorescence microscopy. It is filed as functional, cell-based.
The target in assay [7] is Mast/stem cell growth factor receptor Kit (Homo sapiens, UniProt P10721). Put plainly: Inhibition of c-Kit (unknown origin) by enzymatic assay.
Chain of Mast/stem cell growth factor receptor Kit (P10721 whole entry): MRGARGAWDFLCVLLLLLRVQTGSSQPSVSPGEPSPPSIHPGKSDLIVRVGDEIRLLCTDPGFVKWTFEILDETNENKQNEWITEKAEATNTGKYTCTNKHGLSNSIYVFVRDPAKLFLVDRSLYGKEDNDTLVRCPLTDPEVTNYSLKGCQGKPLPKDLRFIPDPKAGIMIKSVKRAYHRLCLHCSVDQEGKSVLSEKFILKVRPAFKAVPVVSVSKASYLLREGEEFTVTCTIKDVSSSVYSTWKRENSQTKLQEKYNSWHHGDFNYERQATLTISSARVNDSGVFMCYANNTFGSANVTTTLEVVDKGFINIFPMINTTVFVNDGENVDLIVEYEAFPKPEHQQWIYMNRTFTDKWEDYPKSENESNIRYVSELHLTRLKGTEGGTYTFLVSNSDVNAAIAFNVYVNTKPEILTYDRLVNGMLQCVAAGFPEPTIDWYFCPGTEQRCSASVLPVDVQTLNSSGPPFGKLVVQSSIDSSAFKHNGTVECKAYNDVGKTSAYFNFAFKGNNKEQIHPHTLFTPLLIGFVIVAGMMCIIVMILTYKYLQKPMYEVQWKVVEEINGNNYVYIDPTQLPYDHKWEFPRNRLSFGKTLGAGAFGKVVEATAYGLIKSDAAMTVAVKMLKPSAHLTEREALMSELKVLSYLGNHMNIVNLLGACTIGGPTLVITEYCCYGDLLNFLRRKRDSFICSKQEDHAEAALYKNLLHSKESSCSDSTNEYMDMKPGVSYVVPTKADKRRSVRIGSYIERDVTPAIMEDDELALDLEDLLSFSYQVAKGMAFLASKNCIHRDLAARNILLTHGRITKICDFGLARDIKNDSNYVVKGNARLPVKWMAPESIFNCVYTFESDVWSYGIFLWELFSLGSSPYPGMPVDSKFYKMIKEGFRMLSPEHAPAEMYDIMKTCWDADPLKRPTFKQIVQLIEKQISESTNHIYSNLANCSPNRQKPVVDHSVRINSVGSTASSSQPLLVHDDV
The target of assay [8] is Vascular endothelial growth factor receptor 2 (Homo sapiens, UniProt P35968). Put plainly: Inhibition of VEGFR2 (unknown origin) by enzymatic assay.
Assay [9] addresses Platelet-derived growth factor receptor beta (Homo sapiens, UniProt P09619). Put plainly: Inhibition of PDGFRbeta (unknown origin) by enzymatic assay.
Assay [10] deals with ALK tyrosine kinase receptor (Homo sapiens, UniProt Q9UM73). Put plainly: Inhibition of ALK (unknown origin) by enzymatic assay.
The target of assay [11] is Macrophage-stimulating protein receptor (Homo sapiens, UniProt Q04912). Put plainly: Inhibition of RON (unknown origin) by enzymatic assay.
Chain of Macrophage-stimulating protein receptor (Q04912 25-304 limits assumed): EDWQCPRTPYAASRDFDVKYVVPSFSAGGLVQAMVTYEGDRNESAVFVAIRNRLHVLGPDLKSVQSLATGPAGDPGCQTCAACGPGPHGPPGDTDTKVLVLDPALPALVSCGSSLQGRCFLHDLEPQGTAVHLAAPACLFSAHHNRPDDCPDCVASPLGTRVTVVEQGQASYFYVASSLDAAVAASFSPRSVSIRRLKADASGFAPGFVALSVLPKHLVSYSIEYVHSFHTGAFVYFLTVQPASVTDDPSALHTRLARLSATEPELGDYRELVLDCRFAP
Chain of Macrophage-stimulating protein receptor (Q04912 310-1400 limits assumed): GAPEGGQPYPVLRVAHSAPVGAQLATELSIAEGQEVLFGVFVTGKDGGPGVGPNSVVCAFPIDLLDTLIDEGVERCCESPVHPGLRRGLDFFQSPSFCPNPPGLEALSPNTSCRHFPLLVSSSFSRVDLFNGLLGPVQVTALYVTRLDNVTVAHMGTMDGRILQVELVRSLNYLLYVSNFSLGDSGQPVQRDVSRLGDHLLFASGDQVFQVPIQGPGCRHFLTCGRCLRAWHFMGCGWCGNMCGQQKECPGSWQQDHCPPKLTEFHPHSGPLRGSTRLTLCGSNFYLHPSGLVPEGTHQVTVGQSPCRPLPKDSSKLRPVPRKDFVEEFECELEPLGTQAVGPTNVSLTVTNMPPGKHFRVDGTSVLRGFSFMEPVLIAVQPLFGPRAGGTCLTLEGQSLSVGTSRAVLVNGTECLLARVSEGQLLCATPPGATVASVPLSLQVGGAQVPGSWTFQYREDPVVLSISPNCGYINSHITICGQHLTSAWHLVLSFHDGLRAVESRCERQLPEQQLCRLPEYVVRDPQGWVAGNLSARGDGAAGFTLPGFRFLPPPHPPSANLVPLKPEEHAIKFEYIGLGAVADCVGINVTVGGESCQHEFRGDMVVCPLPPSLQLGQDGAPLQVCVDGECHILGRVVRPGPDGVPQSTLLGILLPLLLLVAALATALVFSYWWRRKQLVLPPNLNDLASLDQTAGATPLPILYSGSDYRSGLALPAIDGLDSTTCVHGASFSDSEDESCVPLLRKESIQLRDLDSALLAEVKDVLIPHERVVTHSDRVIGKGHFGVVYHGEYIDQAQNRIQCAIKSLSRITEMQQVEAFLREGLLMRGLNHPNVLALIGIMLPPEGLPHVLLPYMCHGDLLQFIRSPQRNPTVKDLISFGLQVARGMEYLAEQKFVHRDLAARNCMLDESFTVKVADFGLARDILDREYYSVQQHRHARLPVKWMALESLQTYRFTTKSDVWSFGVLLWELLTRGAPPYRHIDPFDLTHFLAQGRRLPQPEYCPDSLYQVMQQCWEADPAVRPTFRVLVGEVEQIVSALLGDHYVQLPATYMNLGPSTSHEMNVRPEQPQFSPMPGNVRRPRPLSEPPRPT
Assay [12] relates to HepG2. Put plainly: Induction of apoptosis in human HepG2 cells assessed as abnormal cell morphology at 0.24 uM by inverted microscopy microscopy. It is filed as functional, cell-based.
The test system of assay [13] is A549. Put plainly: Antiproliferative activity against human A549 cells assessed as cell growth inhibition measured after 72 hrs by MTT assay.
Assay [14] deals with Hepatocyte growth factor receptor (Homo sapiens, UniProt P08581). Put plainly: Inhibition of c-Met (unknown origin) by caliper mobility shift assay.
Chain of Hepatocyte growth factor receptor (P08581 whole entry): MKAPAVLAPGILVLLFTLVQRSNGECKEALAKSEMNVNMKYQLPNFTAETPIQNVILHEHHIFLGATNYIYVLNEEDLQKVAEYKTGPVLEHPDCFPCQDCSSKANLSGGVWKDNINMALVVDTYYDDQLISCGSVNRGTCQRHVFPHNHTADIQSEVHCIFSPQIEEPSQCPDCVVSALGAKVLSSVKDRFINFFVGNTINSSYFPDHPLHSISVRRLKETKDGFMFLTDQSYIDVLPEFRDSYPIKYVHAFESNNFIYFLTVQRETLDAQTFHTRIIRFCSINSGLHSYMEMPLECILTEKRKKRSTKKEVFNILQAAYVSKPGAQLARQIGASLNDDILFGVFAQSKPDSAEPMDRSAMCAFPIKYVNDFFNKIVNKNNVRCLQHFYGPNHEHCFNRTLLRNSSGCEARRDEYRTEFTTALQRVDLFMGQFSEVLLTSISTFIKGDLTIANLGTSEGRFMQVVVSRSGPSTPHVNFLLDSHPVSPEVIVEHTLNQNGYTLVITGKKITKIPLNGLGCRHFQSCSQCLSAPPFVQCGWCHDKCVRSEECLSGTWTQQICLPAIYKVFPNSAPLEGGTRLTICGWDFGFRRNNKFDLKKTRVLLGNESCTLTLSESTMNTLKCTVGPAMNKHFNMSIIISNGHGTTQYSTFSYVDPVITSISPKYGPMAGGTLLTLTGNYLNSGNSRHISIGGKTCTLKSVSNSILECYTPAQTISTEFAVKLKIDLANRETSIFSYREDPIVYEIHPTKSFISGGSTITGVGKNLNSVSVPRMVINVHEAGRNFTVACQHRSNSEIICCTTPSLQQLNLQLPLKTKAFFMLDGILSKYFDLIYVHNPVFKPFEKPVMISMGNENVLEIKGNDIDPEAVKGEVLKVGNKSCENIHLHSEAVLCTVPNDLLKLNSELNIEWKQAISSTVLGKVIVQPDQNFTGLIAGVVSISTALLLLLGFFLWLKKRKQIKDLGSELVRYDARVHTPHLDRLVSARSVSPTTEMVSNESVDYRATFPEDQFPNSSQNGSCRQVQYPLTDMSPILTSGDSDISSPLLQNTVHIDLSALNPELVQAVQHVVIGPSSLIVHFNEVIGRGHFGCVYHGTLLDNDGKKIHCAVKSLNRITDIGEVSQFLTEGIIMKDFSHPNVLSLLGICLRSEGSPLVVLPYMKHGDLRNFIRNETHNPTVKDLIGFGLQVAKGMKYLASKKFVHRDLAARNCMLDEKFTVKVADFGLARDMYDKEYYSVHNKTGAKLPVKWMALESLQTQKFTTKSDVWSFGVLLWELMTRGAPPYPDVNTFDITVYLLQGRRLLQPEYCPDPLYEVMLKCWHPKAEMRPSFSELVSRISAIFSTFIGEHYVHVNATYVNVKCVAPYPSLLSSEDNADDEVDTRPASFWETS

SMILES strings stand for the structures. Active and inactive are the calls of the source. The rule behind the calls is not given here.

Chain of Platelet-derived growth factor receptor beta (P09619 whole entry): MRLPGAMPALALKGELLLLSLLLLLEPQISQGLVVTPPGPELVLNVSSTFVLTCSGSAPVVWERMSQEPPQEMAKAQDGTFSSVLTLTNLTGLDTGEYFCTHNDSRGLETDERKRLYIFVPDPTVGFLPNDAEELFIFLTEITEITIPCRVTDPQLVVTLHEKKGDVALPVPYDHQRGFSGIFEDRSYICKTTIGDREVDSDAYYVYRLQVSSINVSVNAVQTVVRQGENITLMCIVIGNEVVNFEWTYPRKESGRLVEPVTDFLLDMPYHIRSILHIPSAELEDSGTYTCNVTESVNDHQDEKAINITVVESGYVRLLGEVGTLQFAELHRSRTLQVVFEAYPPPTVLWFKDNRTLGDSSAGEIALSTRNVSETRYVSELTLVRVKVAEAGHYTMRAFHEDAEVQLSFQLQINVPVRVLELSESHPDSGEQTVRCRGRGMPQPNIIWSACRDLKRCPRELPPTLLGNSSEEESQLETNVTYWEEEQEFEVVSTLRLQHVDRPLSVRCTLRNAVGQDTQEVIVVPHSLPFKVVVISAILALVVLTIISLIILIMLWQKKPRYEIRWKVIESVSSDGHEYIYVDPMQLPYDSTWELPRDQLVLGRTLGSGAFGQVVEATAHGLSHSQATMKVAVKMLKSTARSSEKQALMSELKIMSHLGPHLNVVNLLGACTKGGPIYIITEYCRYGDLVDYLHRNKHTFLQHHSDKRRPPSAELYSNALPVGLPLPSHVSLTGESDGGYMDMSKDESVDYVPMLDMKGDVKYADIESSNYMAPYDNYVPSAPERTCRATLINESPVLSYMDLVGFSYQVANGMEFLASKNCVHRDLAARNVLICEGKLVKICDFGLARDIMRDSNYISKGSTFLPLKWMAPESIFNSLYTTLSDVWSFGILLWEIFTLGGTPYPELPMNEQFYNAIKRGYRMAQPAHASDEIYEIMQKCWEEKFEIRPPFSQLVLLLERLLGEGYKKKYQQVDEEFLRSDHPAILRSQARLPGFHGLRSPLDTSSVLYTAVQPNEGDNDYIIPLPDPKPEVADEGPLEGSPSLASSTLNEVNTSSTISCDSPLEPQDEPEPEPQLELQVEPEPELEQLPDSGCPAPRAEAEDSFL

As a reminder, the IC50 is the concentration needed to halve the response being measured. In the case of `O=C(Nc1ccc(Oc2ccnc3[nH]ccc23)c(F)c1)c1cn(-c2ccc(C(F)(F)F)cc2Cl)c2ccccc2c1=O`, the values for the IC50 in the assay with A549 [1], with HepG2 [2] and with MCF7 were 1620 nM, 1840 nM and 1120 nM, respectively.

Consider `O=C(Nc1ccc(Oc2ccnc3[nH]ccc23)c(F)c1)c1cn(-c2ccc(F)cc2)c2ccccc2c1=O`, for which the IC50 is 290 nM in the assay on A549 [1]; 270 nM in the assay with HepG2 [2]; 520 nM in the assay on MCF7; 1310 nM in [7]; above 10 µM in assay [8]; above 10 µM in assay [9]. Besides, the IC50 in assay [10] and in assay [11] was above 10 µM throughout. The result in the assay with HepG2 [3], in the assay on HepG2 [4], in the assay with HepG2 [5], in the assay with HepG2 [6] and with HepG2 [12] was Active. The inhibition entry with A549 [13] is “Dose-dependent effect”.

On to `O=C(Nc1ccc(Oc2ccnc3[nH]ccc23)c(F)c1)c1cn(-c2ccc(Br)cc2F)c2ccccc2c1=O`, for which the IC50 turned out to be 1150 nM in the assay with A549 [1], 2200 nM in the assay on HepG2 [2] and 1390 nM in the assay with MCF7.

As to `O=C(Nc1ccc(Oc2ccnc3[nH]ccc23)c(F)c1)c1cn(-c2ccc(F)c(Cl)c2)c2ccccc2c1=O`, the IC50 with A549 [1] was 2150 nM; with HepG2 [2], 3390 nM.

On to `Cn1ccc2c(Oc3ccc(NC(=O)c4cn(-c5ccc(C(F)(F)F)cc5Cl)c5ccccc5c4=O)cc3F)ccnc21`, for which the IC50 turned out to be 2050 nM with A549 [1] and 190 nM with MCF7.

Take `O=C(Nc1ccc(Oc2ccnc3[nH]ccc23)cc1)c1cn(-c2ccccc2)c2ccccc2c1=O`: the IC50 with A549 [1] turned out to be 1030 nM; with HepG2 [2], 2250 nM; with MCF7, 3560 nM.

In the case of `Cn1ccc2c(Oc3ccc(NC(=O)c4cn(-c5ccc(F)cc5)c5ccccc5c4=O)cc3F)ccnc21`, the IC50 with A549 [1] amounted to 1460 nM; in the assay on HepG2 [2], 2010 nM.

As to `Cn1ccc2c(Oc3ccc(NC(=O)c4cn(-c5ccc(Br)cc5F)c5ccccc5c4=O)cc3F)ccnc21`, the IC50 in the assay with A549 [1] stood at 1520 nM; in the assay with HepG2 [2], 2510 nM; in the assay with MCF7, 420 nM.

For the molecule `O=C(Nc1ccc(Oc2ccnc3[nH]ccc23)cc1)c1cn(-c2ccc(Cl)cc2)c2ccccc2c1=O`, the IC50 in the assay with A549 [1] was 650 nM; in the assay on HepG2 [2], 250 nM; with MCF7, 1590 nM.

Regarding `Cn1ccc2c(Oc3ccc(NC(=O)c4cn(-c5ccc(F)c(Cl)c5)c5ccccc5c4=O)cc3F)ccnc21`, the IC50 in the assay on A549 [1] stood at 1210 nM.

As to `COc1ccc(-n2cc(C(=O)Nc3ccc(Oc4ccnc5c4ccn5C)c(F)c3)c(=O)c3ccccc32)cc1`, the IC50 worked out at 3210 nM with A549 [1], 3750 nM in the assay with HepG2 [2] and 6720 nM in the assay on MCF7.

For `O=C(Nc1ccc(Oc2ccnc3[nH]ccc23)cc1)c1cn(-c2ccc(F)c(Cl)c2)c2ccccc2c1=O`, the results for the IC50 in the assay with A549 [1], with HepG2 [2] and with MCF7 were 4810 nM, 1120 nM and 1510 nM, respectively.

With `Cn1ccc2c(Oc3ccc(NC(=O)c4cn(-c5ccccc5)c5ccccc5c4=O)cc3F)ccnc21`, the IC50 in the assay with A549 [1] stood at 1720 nM; with HepG2 [2], 2170 nM; in the assay with MCF7 it was 2790 nM.

On to `Cn1ccc2c(Oc3ccc(NC(=O)c4cn(-c5ccc(Br)cc5)c5ccccc5c4=O)cc3F)ccnc21`, for which the results for the IC50 in the assay with A549 [1], with HepG2 [2] and in the assay on MCF7 were 1390 nM, 1260 nM and 1830 nM, respectively.

Regarding `COc1cc2c(Oc3ccc(NC(=O)C4(C(=O)Nc5ccc(F)cc5)CC4)cc3F)ccnc2cc1OCCCN1CCOCC1` [FORETINIB], the IC50 turned out to be 480 nM in the assay on A549 [1], 350 nM in the assay on HepG2 [2] and 730 nM in the assay on MCF7.

Take `O=C(Nc1ccc(Oc2ccnc3[nH]ccc23)c(F)c1)c1cn(-c2ccccc2)c2ccccc2c1=O`: the IC50 was determined as 420 nM in the assay with A549 [1], 760 nM in the assay on HepG2 [2] and 430 nM in the assay on MCF7.

Regarding `COc1ccc(-n2cc(C(=O)Nc3ccc(Oc4ccnc5[nH]ccc45)cc3)c(=O)c3ccccc32)cc1`, the figures for the IC50 in the assay on A549 [1], in the assay on HepG2 [2] and in the assay with MCF7 were 4980 nM, 5950 nM and 4650 nM, respectively.

For `COc1ccc(-n2cc(C(=O)Nc3ccc(Oc4ccnc5[nH]ccc45)c(F)c3)c(=O)c3ccccc32)cc1`, the results for the IC50 in the assay on A549 [1], in the assay with HepG2 [2] and in the assay with MCF7 were 4150 nM, 6530 nM and 6620 nM, respectively.

For `O=C(Nc1ccc(Oc2ccnc3[nH]ccc23)c(F)c1)c1cn(-c2ccc(Br)cc2)c2ccccc2c1=O`, the IC50 in the assay with A549 [1] turned out to be 950 nM; in the assay with HepG2 [2], 710 nM; in the assay on MCF7, 650 nM.

On to `O=C(Nc1ccc(Oc2ccnc3[nH]ccc23)cc1)c1cn(-c2ccc(Br)cc2F)c2ccccc2c1=O`, for which the IC50 in the assay on A549 [1] was determined as 1330 nM; in the assay with HepG2 [2] it was 790 nM.

For the molecule `O=C(Nc1ccc(Oc2ccnc3[nH]ccc23)cc1)c1cn(-c2ccc(C(F)(F)F)cc2Cl)c2ccccc2c1=O`, the IC50 was determined as 2350 nM in the assay on A549 [1] and 3570 nM in the assay with MCF7.

Turning to `Cn1ccc2c(Oc3ccc(NC(=O)c4cn(-c5ccc(Cl)cc5)c5ccccc5c4=O)cc3F)ccnc21`, the IC50 is 250 nM in the assay with A549 [1], 290 nM with HepG2 [2], 2120 nM in the assay on MCF7 and 87 nM in assay [14].

With `O=C(Nc1ccc(Oc2ccnc3[nH]ccc23)cc1)c1cn(-c2ccc(Br)cc2)c2ccccc2c1=O`, the IC50 in the assay with A549 [1] turned out to be 450 nM; in the assay on HepG2 [2], 220 nM; in the assay on MCF7, 610 nM; in assay [14] it was 10 nM.

As for `O=C(Nc1ccc(Oc2ccnc3[nH]ccc23)c(F)c1)c1cn(-c2ccc(Cl)cc2)c2ccccc2c1=O`, the IC50 in the assay with A549 [1] stood at 320 nM; with HepG2 [2], 380 nM; in [14], 41 nM.

With `O=C(Nc1ccc(Oc2ccnc3[nH]ccc23)cc1)c1cn(-c2ccc(F)cc2)c2ccccc2c1=O`, the IC50 amounted to 390 nM in the assay on A549 [1], 450 nM in the assay with HepG2 [2] and 720 nM in the assay with MCF7.
